The source of these data is US20150175585A1, “FUSED QUINONIC COMPOUNDS” (CENTRO ATLANTICO DEL MEDICAMENTO S.A (CEAMED, S.A.), priority 2012, published 2015).

Bounds are passed on as bounds.

Experiment [1] concerns STAT5 transcription (pSPI-GLE1-luc) in HEK-GHR cells. Description: HEK-GHR STAT5 transcription assay (luciferase reporter, rhGH stimulated). In kind it is cell-based, human. Particulars: Homo sapiens, compound 45 minutes before 50 nM rhGH, six hours, read-out: Activity (IC50, reduction of luciferase activity). In general terms: In a reporter assay the amount or activity of a reporter protein is the signal.

A further experiment relates to STAT3. In words: IL-6 induced STAT3 phosphorylation in T47D cells (Western immunoblotting). Particulars: serum deprived T47D cells; 5 μM for 0.5-3 h or 0.5-10 μM; IL-6 25 ng/ml 30 min. Format: cell-based, human. How it is done:
FIG. 2. • Overnight serum deprived T47D cells were stimulated with IL-6 (25 ng/ml) for 3, 5, 10, 20, 30, 45 and 60 min. JAK2, pYJAK2, STAT3 and pYSTAT3 were detected using Western immunoblotting as described in methods. B) Overnight serum derived T47D cells were pre-incubated with compound 4 (C4) (5 μM) for 0.5, 1, 2, and 3 h and stimulated with 25 ng/ml for 30 min. JAK2, pYJAK2, STAT3 and pYSTAT3 were detected using Western immunoblotting as described in methods. C) Overnight serum derived T47D cells were preincubated with C4 at increasing concentrations (0.5-10 μM) for 3 h and stimulated with 25 ng/ml IL-6 for 30 min. JAK2, pJAK2, STAT5 and pSTAT5 were detected using Western immunoblotting as described above. Equal protein loading was confirmed using a specific human anti-β-actin antibody. C—Veh: T47D cells exposed to C4 and IL-6 vehicle (0.1% DMSO and PBS, respectively) for the indicated times. C+: T47D cells exposed to C4 vehicle (0.1% DMSO) and stimulated with IL-6 (25 ng/ml) for the indicated time.
T47D cells were routinely maintained in 75-cm^2 culture flasks with vented caps at 37° C., 5% CO2 in RPMI 1640 growth media without phenol red supplemented with 10% FBS, 2 mM L-glutamine, 10 mM HEPES, 50 U/ml penicillin/50 U/ml streptomycin, and 0.3 mg/ml gentamicin. […]
(In general: In western blotting, separated proteins are transferred to a membrane and probed.)

One may read the IC50 as the concentration that gives 50% inhibition.

As to `N#Cc1ccc(C2C3=C(CCCC3=O)OC3=C2C(=O)c2ccccc2C3=O)cc1` (centres unmarked) [Compound 4, 4-(1,6,11-trioxo-2,3,4,6,11,12-hexahydro-1H-benzo[b]xanthen-12-yl)benzonitrile], the IC50 in experiment [1] is under 1000 nM. The “IL-6-induced STAT3 phosphorylation” value in the experiment with STAT3 is “inhibits, in a time/dose dependent manner”.
